Assay results as given in PubChem BioAssay AID1013 (Columbia University Molecular Screening Center, 2008).
The source made the active and inactive calls. No rule for the calls is given here.

Experiment: inhibitors of TNFa-induced VCAM1 expression, confirmation, imaging, TNFa stimulus, retest and dose response (AID 1013);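 as to cell count: compound on cells 1 h before TNFa then 24 h more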
Conditions: TNFa-stimulated cells, VCAM1 expression imaging; at 2 µM; stronger effect = higher value

Row | SMILES | inhibition
1 | CC1CCN(C(=O)C2c3ccccc3C(=O)N3CCc4ccccc4C23)CC1 (stereo not given) | 3.6% (inactive)
2 | CCOC(=O)c1ccc(N2C(=O)CC(N3CCC(O)(c4ccc(Br)cc4)CC3)C2=O)cc1 (stereo not given) | -13.9% (inactive)
3 | CCOc1cc(S(=O)(=O)Nc2ccccc2CC)ccc1Cl | -2.9% (inactive)
4 | Cn1cc([N+](=O)[O-])c(C(=O)Nc2ccc3c(c2)OCCO3)n1 | 10.7% (inactive)
5 | COc1ccc(-c2cc(C(F)(F)F)nc(S(=O)(=O)CCC(=O)N3CCOCC3)n2)cc1 | 20.8% (inactive)
6 | CC(=O)Nc1ccc(NC2(C)C(=O)c3ccccc3C2=O)cc1 | -3.5% (inactive)
7 | COC(=O)CSc1nc2nc(C)c(Br)cc2[nH]1 | -12.6% (inactive)
8 | O=C(COC(=O)C1(c2ccccc2F)CCCC1)NC1CCS(=O)(=O)C1 (stereo not given) | -6.3% (inactive)
9 | O=C(NCc1cccs1)c1nc2c(nnn2Cc2ccccc2Cl)c(=O)[nH]1 | 13.8% (inactive)
10 | CC(CCc1ccccc1)NC(=O)c1ccc(Br)o1 (stereo not given) | -4.5% (inactive)
11 | C=CCc1ccccc1OCC(O)CNC (stereo not given) | 5.5% (inactive)
12 | CSc1nc2nccc(-c3ccc(Oc4ccccc4)cc3)n2n1 | -5.9% (inactive)
13 | COc1ccc(Cn2nnnc2C(c2cccs2)N2CCSCC2)cc1 (stereo not given) | -1.3% (inactive)
14 | CC(=NCCCO)c1c(O)n(Cc2ccccc2)c(=O)[nH]c1=O | -13.3% (inactive)
15 | CN1C(=O)C2(NCCc3c2[nH]c2ccccc32)c2ccccc21 (stereo not given) | -19.9% (inactive)
16 | CC/C(=N\NC(=O)CNC(=O)/C=C/c1ccco1)c1ccccc1 | -3.4% (inactive)
17 | Cc1cc(C)cc(NC(=O)CC2NCCNC2=O)c1 (stereo not given) | 7.4% (inactive)
18 | C=CCn1c(N2CCCC2)nc2c1c(=O)[nH]c(=O)n2C | 7.9% (inactive)
19 | Cc1cccnc1N(C(=O)Nc1ccccc1)C1=NCC(C)(C)S1 | -11.8% (inactive)
20 | Cn1nc(C(=O)NCC2CCCO2)c2ccccc2c1=O (stereo not given) | -9% (inactive)
21 | O=S(=O)(c1ccc2c(c1)OCCCO2)N1CCNCC1 | 0.5% (inactive)
22 | Cn1c(NCc2c[nH]c3ccccc23)nc2ccccc21 | 18% (inactive)
23 | CCCn1c(SCC(=O)NCc2ccco2)nnc1C(C)C | -9.8% (inactive)
24 | CC(C)C(=O)N1CCN(c2nc(-c3ccccc3)c3c(c2C#N)CC(C)(C)OC3)CC1 | 5.1% (inactive)

Row | SMILES | inhibition
25 | CCOc1cc(/C=C2/C(=O)N(c3ccccc3)N=C2C)ccc1OC(=O)c1ccco1 | 3.9% (inactive)
26 | COc1ccc(S(=O)(=O)N2CCCC2C(=O)Nc2ccc(C)cc2)cc1 (stereo not given) | -4% (inactive)
27 | CC(=O)c1cccc(S(=O)(=O)N2CCC(n3nnc4cc(F)ccc43)CC2)c1 | 3.2% (inactive)
28 | COc1ccc(Oc2cc(NC(=O)c3nn(C)cc3[N+](=O)[O-])cc([N+](=O)[O-])c2)cc1 | 74.7% (inactive)
29 | CCOc1ccc(C=O)cc1CN1CCCCC1 | 1.5% (inactive)
30 | O=C(O)c1ccccc1Nc1ccccc1C(=O)O | 0.6% (inactive)
31 | Cc1nc2sc(C(c3ccc(Cl)cc3)N3CC(C)OC(C)C3)c(O)n2n1 (stereo not given) | -3% (inactive)
32 | NC(=S)N/N=C/c1ccc(-c2cc(Cl)ccc2Cl)o1 | 34.6% (inactive)
33 | O=C1N2CCSC2=NC1(Nc1ccccn1)C(F)(F)F (stereo not given) | 5.4% (inactive)
34 | Cc1ccc(Nc2nc(CSc3nnnn3C)cs2)cc1 | -5.5% (inactive)
35 | COc1ccc(NC(=O)N2CCn3c2nc2ccccc23)cc1 | 13% (inactive)
36 | O=C1CC(N2CCN(Cc3ccc4c(c3)OCO4)CC2)C(=O)N1c1ccccc1 (stereo not given) | -11.2% (inactive)
37 | Cc1ccc(C(=O)CSc2nnc(COc3ccc(C#N)cc3)n2-c2ccccc2)cc1 | -0.7% (inactive)
38 | CC(C)(C)SCCNC(=O)CN(c1ccc(F)cc1)S(C)(=O)=O | -12.2% (inactive)
39 | CC(Sc1nc(N)cc(=O)[nH]1)C(=O)NC1CCCCC1 (stereo not given) | -7.6% (inactive)
40 | CCNCC(O)COCC(O)CNCC (stereo not given) | 1.3% (inactive)
41 | CCOC(=O)c1cnn(-c2nc(-c3ccc(C)cc3)cs2)c1C(F)(F)F | 8.3% (inactive)
42 | CCCc1nnc(SCC(=O)O)n1/N=C/c1ccc2c(c1)OCO2 | -2% (inactive)
43 | COc1ccc(-c2cc(=O)[nH]c(NCc3ccccc3)n2)cc1 | 15.6% (inactive)
44 | O=C(NCc1ccco1)c1cc(-c2ccc(Cl)cc2)on1 | -6.2% (inactive)
45 | O=c1c(-c2ccc(Br)cc2)coc2c(CN3CCOCC3)c(O)ccc12 | -12.4% (inactive)
46 | CN(Cc1ccccc1)S(=O)(=O)c1ccc(NC(=S)NC(=O)C2CCCC2)cc1 | 17.2% (inactive)
47 | COc1ccc(C(c2sc3ncnn3c2O)N2CC(C)OC(C)C2)cc1OC (stereo not given) | 14.8% (inactive)
48 | Cc1ccccc1Cn1nc(C)c(NC(=O)c2cc(-c3cccs3)on2)c1C | -4.7% (inactive)

Row | SMILES | inhibition
49 | CCc1nc2oc3ccccc3c(=O)c2c(=O)n1CCOC | -0.1% (inactive)
50 | CCn1c(=O)cc(OCC(=O)NCc2ccco2)c2ccccc21 | -6.7% (inactive)
51 | O=C(CN1CCN(c2nc(-c3ccc(F)cc3)cs2)CC1)Nc1ccc2c(c1)OCO2 | 16.2% (inactive)
52 | CCOC(=O)c1cnn(-c2nc(CC)nc3sc4c(c23)CCC4)c1N | -10.3% (inactive)
53 | Cc1ccccc1-c1nc(CN2CCC(C(=O)NCCCN3CC(C)CC(C)C3)CC2)c(C)o1 (stereo not given) | 21.3% (inactive)
54 | CCOC(=O)c1ccc(NS(=O)C23CC4CC(CC(C4)C2)C3)cc1 (stereo not given) | -13.9% (inactive)
55 | CCOC(=O)/C(=C\c1cccnc1)C(=O)c1cc(C(C)=O)c(Nc2ccccc2)s1 | 19.8% (inactive)
56 | Cc1cccnc1Nc1nc(-c2ccccn2)cs1 | -2.3% (inactive)
57 | Oc1ccc(N2CCN(c3ncnc4sc5c(c34)CCC5)CC2)cc1 | 10.1% (inactive)
58 | C=C1N2CCC(CC2)C1(O)c1ccccc1C (stereo not given) | -7.5% (inactive)
59 | CC(C)NC1CS(=O)(=O)CC1O (stereo not given) | -13.7% (inactive)
60 | CCC(=O)Nc1cccc(NC(=O)c2cc3ccccc3o2)c1 | -3.1% (inactive)
61 | O=c1c2ccccc2nnn1CSc1ncnc2ccccc12 | 15.2% (inactive)
62 | O=C(Cn1cccc1C(=O)c1ccccc1)NCCN1CCOCC1 | -13.5% (inactive)
63 | Cc1ccccc1-c1cc(-c2ccccc2O)on1 | 25.2% (inactive)
64 | CCCCC(=O)NC(=S)Nc1ccccc1C(=O)Nc1ccccc1 | -2.5% (inactive)
65 | O=C(c1cc(-c2ccncc2)nc2ccc(Br)cc12)N1CCN(c2ccccn2)CC1 | 1.3% (inactive)
66 | O=C(CN1CCSCC1)N1CCc2[nH]c3ccc(Br)cc3c2C1 | -11.1% (inactive)
67 | Cc1cccc(NC(=O)CC2SC(=O)N(c3ccccc3)C2=O)c1 (stereo not given) | 3.9% (inactive)
68 | OCCN=C(c1ccccc1)C12CN3CN(CN(C3)C1)C2 | -1.2% (inactive)
69 | O=C(NCCO)C(c1ccccc1)c1ccccc1 | -14.4% (inactive)
70 | COc1ccc(-c2nnc(SCC(=O)NC3CCCCC3)o2)cc1OC | -4.1% (inactive)
71 | O=C(/C(=C/c1ccc(Cl)cc1)c1nc2ccccc2[nH]1)c1cccs1 | 32.1% (inactive)
72 | COc1ccc2c(c1)CCc1c(C(=O)N3CC4(C)CC3CC(C)(C)C4)noc1-2 (stereo not given) | -14.4% (inactive)

Same assay, conditions: TNFa-stimulated cells, VCAM1 expression imaging; cell count; at 10 µM; stronger effect = lower value

Row | SMILES | cell count
73 | COc1ccc(Oc2cc(NC(=O)c3nn(C)cc3[N+](=O)[O-])cc([N+](=O)[O-])c2)cc1 | 114%
74 | NC(=S)N/N=C/c1ccc(-c2cc(Cl)ccc2Cl)o1 | 90.8%
75 | O=C(/C(=C/c1ccc(Cl)cc1)c1nc2ccccc2[nH]1)c1cccs1 | 83.7%
